Reference: patent US10633379B2, “Bromodomain inhibitors” (AbbVie Inc., priority 2016, dated 2020)

Columns and labels:
BRD4 (BDI_K57-E168) = BRD4 (BDI_K57-E168) (Homo sapiens (Human), UniProt O60885); assay: TR-FRET bromodomain binding assay, BRD4 BDI; details: mean Ki, calculated from IC50, probe Kd and probe concentration
Experimental: (§1) A time-resolved fluorescence resonance energy transfer (TR-FRET) assay was used to determine the affinities of compounds of the Examples listed in Table 1 for each bromodomain of BRD4. His-tagged first (BDI: amino acids K57-E168) and second (BDII: amino acids E352-M457) bromodomains of BRD4 were expressed and purified. An Alexa647-labeled BET-inhibitor was used as the fluorescent probe in the assay.
(§2) Compound dilution series were prepared in DMSO via an approximately 3-fold serial dilution. Compound dilutions were added directly into white, low-volume assay plates (Perkin Elmer Proxiplate 384 Plus#6008280) using a Labcyte Echo in conjunction with Labcyte Access and Thermo Multidrop CombinL robotics. Compounds were then suspended in eight microliters (μL) of assay buffer (20 mM Sodium Phosphate, pH 6.0, 50 mM NaCl, 1 mM Ethylenediaminetetraacetic acid disodium salt dihydrate, 0.01% Triton X-100, 1 mM DL-Dithiothreitol) containing His-tagged bromodomain, Europium-conjugated anti-His antibody (Invitrogen PV5596) and Alexa-647-conjugated probe.
(§3) The final concentration of 1× assay mixture contained 2% DMSO, 12 nM His tagged BRD4 (BDI_K57-E168) and 100 nM probe or 4 nM His tagged BRD4 (BDII_E352-M457) and 30 nM probe, and 1 nM Europium-conjugated anti-His-tag antibody, and compound concentrations in the range of: 49.02 μM-0.61 nM or 0.98 μM-0.15 nM.
(§4) After a one-hour equilibration at room temperature, TR-FRET ratios were determined using an Envision multilabel plate reader (Ex 340, Em 495/520).
(§5) TR-FRET data were normalized to the means of 24 no-compound controls (“high”) and 8 controls containing 1 μM un-labeled probe (“low”). Percent inhibition was plotted as a function of compound concentration and the data were fit with the 4 parameter logistic equation to obtain IC50s. Inhibition constants (Ki) were calculated from the IC50s, probe Kd and probe concentration.

BRD4 (BDII_E352-M457) = BRD4 (BDII_E352-M457) (Homo sapiens (Human), UniProt O60885); assay: TR-FRET bromodomain binding assay, BRD4 BDII; details: mean Ki, calculated from IC50, probe Kd and probe concentration
Experimental: as §1, §2, §3, §4, §5

| Ki (BRD4 (BDI_K57-E168)) | Ki (BRD4 (BDII_E352-M457)) | SMILES |
| --- | --- | --- |
| 579 nM | 3.4 nM | Cc1cc(F)cc(C)c1Oc1ccc(C(C)(C)O)cc1-c1cn(C)c(=O)c2[nH]c(C(=O)NC(C)(C)C)cc12 [Example 36, N-tert-butyl-4-[2-(4-fluoro-2,6-dimethylphenoxy)-5-(2-hydroxypropan-2-yl)phenyl]-6-methyl-7-oxo-6,7-dihydro-1H-pyrrolo[2,3-c]pyridine-2-carboxamide] |
| 195 nM | 3.7 nM | Cc1cccc(Cl)c1Oc1ncc(C(C)(C)O)cc1-c1cn(C)c(=O)c2[nH]c(C(=O)NC(C)(C)C)cc12 [Example 37, N-tert-butyl-4-[2-(2-chloro-6-methylphenoxy)-5-(2-hydroxypropan-2-yl)pyridin-3-yl]-6-methyl-7-oxo-6,7-dihydro-1H-pyrrolo[2,3-c]pyridine-2-carboxamide] |
| 525 nM | 5 nM | CCNC(=O)c1cc2c(-c3cc(C(C)(C)O)cnc3Oc3c(C)cc(F)cc3C)cn(C)c(=O)c2[nH]1 [Example 43, N-ethyl-4-[2-(4-fluoro-2,6-dimethylphenoxy)-5-(2-hydroxypropan-2-yl)pyridin-3-yl]-6-methyl-7-oxo-6,7-dihydro-1H-pyrrolo[2,3-c]pyridine-2-carboxamide] |
| 323 nM | 7.3 nM | Cc1cc(F)cc(C)c1Oc1ncc(C(C)(C)O)cc1-c1cn(C)c(=O)c2[nH]c(C(=O)NC(C)(C)C)cc12 [Example 44, N-tert-butyl-4-[2-(4-fluoro-2,6-dimethylphenoxy)-5-(2-hydroxypropan-2-yl)pyridin-3-yl]-6-methyl-7-oxo-6,7-dihydro-1H-pyrrolo[2,3-c]pyridine-2-carboxamide] |
| 1080 nM | 12.5 nM | Cc1cccc(C(F)(F)F)c1Oc1ncc(C(C)(C)O)cc1-c1cn(C)c(=O)c2[nH]c(C(=O)NC(C)(C)C)cc12 [Example 45, N-tert-butyl-4-{5-(2-hydroxypropan-2-yl)-2-[2-methyl-6-(trifluoromethyl)phenoxy]pyridin-3-yl}-6-methyl-7-oxo-6,7-dihydro-1H-pyrrolo[2,3-c]pyridine-2-carboxamide] |
| 263 nM | 4.9 nM | Cc1cc(F)cc(Cl)c1Oc1ncc(C(C)(C)O)cc1-c1cn(C)c(=O)c2[nH]c(C(=O)NC(C)(C)C)cc12 [Example 51, N-tert-butyl-4-[2-(2-chloro-4-fluoro-6-methylphenoxy)-5-(2-hydroxypropan-2-yl)pyridin-3-yl]-6-methyl-7-oxo-6,7-dihydro-1H-pyrrolo[2,3-c]pyridine-2-carboxamide] |
| 325 nM | 0.9 nM | CCNC(=O)c1cc2c(-c3cc(C(C)(C)O)cnc3Oc3c(C)cc(F)cc3Cl)cn(C)c(=O)c2[nH]1 [Example 52, 4-[2-(2-chloro-4-fluoro-6-methylphenoxy)-5-(2-hydroxypropan-2-yl)pyridin-3-yl]-N-ethyl-6-methyl-7-oxo-6,7-dihydro-1H-pyrrolo[2,3-c]pyridine-2-carboxamide] |
| 432 nM | 4.6 nM | Cc1cc(F)cc(Cl)c1Oc1ccc(C(C)(C)O)cc1-c1cn(C)c(=O)c2[nH]c(C(=O)NC(C)(C)C)cc12 [Example 53, N-tert-butyl-4-[2-(2-chloro-4-fluoro-6-methylphenoxy)-5-(2-hydroxypropan-2-yl)phenyl]-6-methyl-7-oxo-6,7-dihydro-1H-pyrrolo[2,3-c]pyridine-2-carboxamide] |

Continued, compound first:

| SMILES | Ki (BRD4 (BDI_K57-E168)) | Ki (BRD4 (BDII_E352-M457)) |
| --- | --- | --- |
| CCNC(=O)c1cc2c(-c3cc(C(C)(C)O)ccc3Oc3c(C)cccc3Cl)cn(C)c(=O)c2[nH]1 [Example 30, 4-[2-(2-chloro-6-methylphenoxy)-5-(2-hydroxypropan-2-yl)phenyl]-N-ethyl-6-methyl-7-oxo-6,7-dihydro-1H-pyrrolo[2,3-c]pyridine-2-carboxamide] | 279 nM | 1.9 nM |
| Cc1cccc(Cl)c1Oc1ccc(C(C)(C)O)cc1-c1cn(C)c(=O)c2[nH]c(C(=O)NC(C)(C)C)cc12 [Example 31, N-tert-butyl-4-[2-(2-chloro-6-methylphenoxy)-5-(2-hydroxypropan-2-yl)phenyl]-6-methyl-7-oxo-6,7-dihydro-1H-pyrrolo[2,3-c]pyridine-2-carboxamide] | 260 nM | 3.3 nM |
| Cn1cc(-c2cc(C(C)(C)O)ccc2-c2ccc(F)cc2F)c2cc(C(=O)NC(C)(C)C)[nH]c2c1=O [Example 33, N-tert-butyl-4-[2′,4′-difluoro-4-(2-hydroxypropan-2-yl)[1,1′-biphenyl]-2-yl]-6-methyl-7-oxo-6,7-dihydro-1H-pyrrolo[2,3-c]pyridine-2-carboxamide] | 921 nM | 6.4 nM |
| Cc1cccc(C)c1Oc1ncc(C(C)(C)O)cc1-c1cn(C)c(=O)c2[nH]c(C(=O)NC3(C)CC3(F)F)cc12 (stereo not drawn) [Example 34, N-(2,2-difluoro-1-methylcyclopropyl)-4-[2-(2,6-dimethylphenoxy)-5-(2-hydroxypropan-2-yl)pyridin-3-yl]-6-methyl-7-oxo-6,7-dihydro-1H-pyrrolo[2,3-c]pyridine-2-carboxamide] | 729 nM | 5.1 nM |
| Cc1cccc(Cl)c1Oc1ncc(C(C)(C)O)cc1-c1cn(C)c(=O)c2[nH]c(C(=O)NC(C)(C)C(F)(F)F)cc12 [Example 38, 4-[2-(2-chloro-6-methylphenoxy)-5-(2-hydroxypropan-2-yl)pyridin-3-yl]-6-methyl-7-oxo-N-(1,1,1-trifluoro-2-methylpropan-2-yl)-6,7-dihydro-1H-pyrrolo[2,3-c]pyridine-2-carboxamide] | 241 nM | 5.7 nM |
| Cc1cccc(Cl)c1Oc1ncc(C(C)(C)O)cc1-c1cn(C)c(=O)c2[nH]c(C(=O)NC3(C)CC3(F)F)cc12 (stereo not drawn) [Example 39, 4-[2-(2-chloro-6-methylphenoxy)-5-(2-hydroxypropan-2-yl)pyridin-3-yl]-N-(2,2-difluoro-1-methylcyclopropyl)-6-methyl-7-oxo-6,7-dihydro-1H-pyrrolo[2,3-c]pyridine-2-carboxamide] | 640 nM | 11.3 nM |
| CCNC(=O)c1cc2c(-c3cc(C(C)(C)O)ccc3Oc3c(C)cc(SC)cc3C)cn(C)c(=O)c2[nH]1 [Example 40, 4-{2-[2,6-dimethyl-4-(methylsulfanyl)phenoxy]-5-(2-hydroxypropan-2-yl)phenyl}-N-ethyl-6-methyl-7-oxo-6,7-dihydro-1H-pyrrolo[2,3-c]pyridine-2-carboxamide] | 773 nM | 2.1 nM |
| Cc1cccc(Cl)c1Oc1ccc(C(C)(C)O)cc1-c1cn(C)c(=O)c2[nH]c(C(=O)NC(C)(C)C(F)(F)F)cc12 [Example 41, 4-[2-(2-chloro-6-methylphenoxy)-5-(2-hydroxypropan-2-yl)phenyl]-6-methyl-7-oxo-N-(1,1,1-trifluoro-2-methylpropan-2-yl)-6,7-dihydro-1H-pyrrolo[2,3-c]pyridine-2-carboxamide] | 759 nM | 4.8 nM |
| Cc1cccc(Cl)c1Oc1ccc(C(C)(C)O)cc1-c1cn(C)c(=O)c2[nH]c(C(=O)NC3(C)CC3(F)F)cc12 (stereo not drawn) [Example 42, 4-[2-(2-chloro-6-methylphenoxy)-5-(2-hydroxypropan-2-yl)phenyl]-N-(2,2-difluoro-1-methylcyclopropyl)-6-methyl-7-oxo-6,7-dihydro-1H-pyrrolo[2,3-c]pyridine-2-carboxamide] | 704 nM | 5.7 nM |
| Cc1cccc(C(F)(F)F)c1Oc1ncc(C(C)(C)O)cc1-c1cn(C)c(=O)c2[nH]c(C(=O)NC(C)(C)C(F)(F)F)cc12 [Example 46, 4-{5-(2-hydroxypropan-2-yl)-2-[2-methyl-6-(trifluoromethyl)phenoxy]pyridin-3-yl}-6-methyl-7-oxo-N-(1,1,1-trifluoro-2-methylpropan-2-yl)-6,7-dihydro-1H-pyrrolo[2,3-c]pyridine-2-carboxamide] | 2520 nM | 19.5 nM |
| Cc1cccc(C(F)(F)F)c1Oc1ncc(C(C)(C)O)cc1-c1cn(C)c(=O)c2[nH]c(C(=O)NC3(C)CC3(F)F)cc12 (stereo not drawn) [Example 47, N-(2,2-difluoro-1-methylcyclopropyl)-4-{5-(2-hydroxypropan-2-yl)-2-[2-methyl-6-(trifluoromethyl)phenoxy]pyridin-3-yl}-6-methyl-7-oxo-6,7-dihydro-1H-pyrrolo[2,3-c]pyridine-2-carboxamide] | 2060 nM | 24.4 nM |
| CCNC(=O)c1cc2c(-c3cc(C(C)(C)O)cnc3Oc3c(C)cccc3C(F)(F)F)cn(C)c(=O)c2[nH]1 [Example 48, N-ethyl-4-{5-(2-hydroxypropan-2-yl)-2-[2-methyl-6-(trifluoromethyl)phenoxy]pyridin-3-yl}-6-methyl-7-oxo-6,7-dihydro-1H-pyrrolo[2,3-c]pyridine-2-carboxamide] | 1600 nM | 6 nM |
| CCNC(=O)c1cc2c(-c3cc(C(C)(C)O)ccc3Oc3c(C)cc(F)cc3Cl)cn(C)c(=O)c2[nH]1 [Example 49, 4-[2-(2-chloro-4-fluoro-6-methylphenoxy)-5-(2-hydroxypropan-2-yl)phenyl]-N-ethyl-6-methyl-7-oxo-6,7-dihydro-1H-pyrrolo[2,3-c]pyridine-2-carboxamide] | 284 nM | 1 nM |
